The values below come from ChEMBL document CHEMBL1201862, “PubChem BioAssay data set” (2004).

Calls of active or inactive are those of the source. Rule as the data show it, for most assays here: actives have a measured EC50 and inactives only a lower limit. Some results are limits rather than exact numbers.

The target of assay [1] is Luciferin 4-monooxygenase (Photinus pyralis, UniProt P08659). In words: inhibition of purified Photinus pyralis luciferase – biochemical, luminescence, dose response (AID 1891).
Assay [2] can be described thus: Luminescence Cell-Based Dose Confirmation HTS to Identify Inhibitors of Platelet Dense Granule Release. [Related pubchem assays: 1663 (Primary HTS), 1678 (Summary of Project)]. In kind it is functional.
Assay [3] has as its target T1, Corticotropin-releasing factor receptor 2/Corticotropin-releasing factor-binding protein (Homo sapiens, UniProt P24387+Q13324).
T1 sequence (Q13324 whole entry): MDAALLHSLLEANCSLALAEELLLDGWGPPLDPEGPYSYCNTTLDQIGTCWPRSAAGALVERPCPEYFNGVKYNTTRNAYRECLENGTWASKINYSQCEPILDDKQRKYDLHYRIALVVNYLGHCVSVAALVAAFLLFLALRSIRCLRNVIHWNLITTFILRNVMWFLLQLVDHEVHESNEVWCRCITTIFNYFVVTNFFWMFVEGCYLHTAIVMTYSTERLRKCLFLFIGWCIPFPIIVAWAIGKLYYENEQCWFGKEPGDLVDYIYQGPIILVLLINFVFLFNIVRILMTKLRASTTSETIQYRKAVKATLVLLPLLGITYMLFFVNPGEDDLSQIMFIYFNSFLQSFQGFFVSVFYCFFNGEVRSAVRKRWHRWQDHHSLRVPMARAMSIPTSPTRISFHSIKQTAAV
T1 sequence (P24387 whole entry): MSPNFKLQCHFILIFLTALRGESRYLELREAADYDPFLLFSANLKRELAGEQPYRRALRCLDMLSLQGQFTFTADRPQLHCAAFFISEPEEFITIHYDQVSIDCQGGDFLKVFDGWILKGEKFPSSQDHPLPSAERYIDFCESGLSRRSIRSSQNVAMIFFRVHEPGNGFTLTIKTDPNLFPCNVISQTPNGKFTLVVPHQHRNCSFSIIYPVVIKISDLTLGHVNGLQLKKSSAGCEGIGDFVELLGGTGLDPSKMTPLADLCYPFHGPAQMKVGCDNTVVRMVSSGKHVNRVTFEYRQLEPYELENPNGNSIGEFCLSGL
The assay is described as follows: Dose Response confirmation of uHTS hits for small molecule antagonists of the CRF-binding protein and CRF-R2 receptor complex. In kind it is functional. The conditions noted are these: read-out: IC50_Mean.

Assay [4] deals with T1, Corticotropin-releasing factor receptor 2/Corticotropin-releasing factor-binding protein. In words: activators of CRF receptor 2 with binding protein – uHTS hits, confirmation (AID 602473). Type of assay: functional. Conditions: read-out: EC50_Mean.
Assay [5] is described as follows: fluconazole-exposed Candida albicans growth modulators – fluorescence, retest, confirmation (AID 2467). Type of assay: functional, cell-based.
Assay [6] in a line: NIH-3T3 fibroblast cytotoxicity, dose response, cytotoxicity control, cell-based, fluorescence, Alamar Blue, secondary assay (AID 2327).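 Also: NIH-3T3 mouse fibroblasts cultured with fluconazole at 8 µg/mL.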 In kind it is functional.
Assay [7] is described as follows: Trypanosoma cruzi growth suppression in host cells – NIH3T3 host cells, beta-gal luminescence, confirmation (AID 2044).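 Also: intracellular parasites grown in NIH/3T3 mouse fibroblasts as host cells; luminescent beta-galactosidase reporter signal from transgenic T. cruzi replicating inside host cells; inhibitors lower the luminescence signal.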 In kind it is functional, cell-based.
Assay [8] is described as follows: NIH3T3 cell viability loss – ATP luminescence, mouse fibroblasts, counter-screen, dose response (AID 2010).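 Also: cells exposed to compound for about 90 hours before reading.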 In kind it is functional, cell-based. In general terms: The purpose of a counterscreen is to sort out artefacts and off-target activity.
Assay [9] can be described thus: HIV-1 AD8 envelope cell-cell fusion blockers – cherry-pick, dose response (AID 652062).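 Also: luciferase signal from cell-cell fusion driven by HIV-1 clade B AD8 Env; potency is for inhibitors of fusion seen as a drop in luminescence.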 In kind it is functional, cell-based.
Assay [10] has as its target T2, Heat shock factor protein 1 (Mus musculus, UniProt P38532).
T2 sequence (P38532 whole entry): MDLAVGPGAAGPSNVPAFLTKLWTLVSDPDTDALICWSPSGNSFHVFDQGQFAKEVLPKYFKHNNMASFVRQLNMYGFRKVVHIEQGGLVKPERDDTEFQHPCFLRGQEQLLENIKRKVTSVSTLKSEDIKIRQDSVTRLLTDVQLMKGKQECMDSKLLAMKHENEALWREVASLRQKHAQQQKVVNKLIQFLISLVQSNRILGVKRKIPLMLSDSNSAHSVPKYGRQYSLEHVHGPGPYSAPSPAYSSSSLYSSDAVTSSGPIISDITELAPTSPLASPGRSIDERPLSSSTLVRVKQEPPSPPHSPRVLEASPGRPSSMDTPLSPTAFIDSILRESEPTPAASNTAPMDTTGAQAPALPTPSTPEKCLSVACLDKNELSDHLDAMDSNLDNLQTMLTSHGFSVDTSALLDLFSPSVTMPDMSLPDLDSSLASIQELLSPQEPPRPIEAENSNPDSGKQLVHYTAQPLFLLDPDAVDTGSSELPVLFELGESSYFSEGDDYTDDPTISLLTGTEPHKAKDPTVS
In words: enhancement of HSF1-driven luciferase signal – cell-based, NIH3T3, luminescence, dose retest, confirmation (AID 435004).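 Also: stress induced by proteasome inhibitor MG132 added 30 min after compound; luciferase reporter driven by HSF1 response element in NIH3T3 cells; actives raise luminescence as potentiators of the MG132 stress response.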 In kind it is functional.

In assay [11] the test system is Streptococcus. In words: GAS UMAA2166 growth inhibition – luminescence, BacTiterGlo, counter-screen for streptokinase expression inhibitor project, dose response (AID 1915).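 Also: potency for reduction of bacterial viability or growth.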 Type of assay: functional, organism-based.
In assay [12] the test system is Streptococcus sp. 'group A'. In words: Streptococcus pyogenes SK(-)GAS viability under kanamycin – luminescence, BacTiterGlo, confirmation, counter-screen for streptokinase expression inhibitor project, dose response (AID 1900). In kind it is functional, organism-based.
Assay [13] addresses T3, Streptokinase A (Streptococcus pyogenes serotype M1, UniProt P10520).
T3 sequence (P10520 whole entry): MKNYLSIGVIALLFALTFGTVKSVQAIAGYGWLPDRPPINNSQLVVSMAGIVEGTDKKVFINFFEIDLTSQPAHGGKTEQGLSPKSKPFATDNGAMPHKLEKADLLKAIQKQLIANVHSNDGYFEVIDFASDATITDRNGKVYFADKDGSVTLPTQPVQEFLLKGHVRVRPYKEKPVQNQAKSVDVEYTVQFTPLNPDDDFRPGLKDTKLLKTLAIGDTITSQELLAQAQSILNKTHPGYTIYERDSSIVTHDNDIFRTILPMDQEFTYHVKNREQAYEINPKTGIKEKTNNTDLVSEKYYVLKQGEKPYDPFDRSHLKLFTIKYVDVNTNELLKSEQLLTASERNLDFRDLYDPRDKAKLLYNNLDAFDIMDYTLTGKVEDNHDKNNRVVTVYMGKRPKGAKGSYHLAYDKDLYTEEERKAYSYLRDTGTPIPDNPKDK
The assay is described as follows: viability-normalized secreted streptokinase activity reduction – plasminogen activation absorbance, OD405, dose response (AID 1914).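 Also: secreted streptokinase activity via plasminogen activation per viability signal from cell pellet.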 In kind it is functional, Streptococcus pyogenes M1 GAS.

Assay [14] has as its target T4, Protein RecA (Mycobacterium tuberculosis, UniProt P9WHJ3).
T4 sequence (P9WHJ3 whole entry): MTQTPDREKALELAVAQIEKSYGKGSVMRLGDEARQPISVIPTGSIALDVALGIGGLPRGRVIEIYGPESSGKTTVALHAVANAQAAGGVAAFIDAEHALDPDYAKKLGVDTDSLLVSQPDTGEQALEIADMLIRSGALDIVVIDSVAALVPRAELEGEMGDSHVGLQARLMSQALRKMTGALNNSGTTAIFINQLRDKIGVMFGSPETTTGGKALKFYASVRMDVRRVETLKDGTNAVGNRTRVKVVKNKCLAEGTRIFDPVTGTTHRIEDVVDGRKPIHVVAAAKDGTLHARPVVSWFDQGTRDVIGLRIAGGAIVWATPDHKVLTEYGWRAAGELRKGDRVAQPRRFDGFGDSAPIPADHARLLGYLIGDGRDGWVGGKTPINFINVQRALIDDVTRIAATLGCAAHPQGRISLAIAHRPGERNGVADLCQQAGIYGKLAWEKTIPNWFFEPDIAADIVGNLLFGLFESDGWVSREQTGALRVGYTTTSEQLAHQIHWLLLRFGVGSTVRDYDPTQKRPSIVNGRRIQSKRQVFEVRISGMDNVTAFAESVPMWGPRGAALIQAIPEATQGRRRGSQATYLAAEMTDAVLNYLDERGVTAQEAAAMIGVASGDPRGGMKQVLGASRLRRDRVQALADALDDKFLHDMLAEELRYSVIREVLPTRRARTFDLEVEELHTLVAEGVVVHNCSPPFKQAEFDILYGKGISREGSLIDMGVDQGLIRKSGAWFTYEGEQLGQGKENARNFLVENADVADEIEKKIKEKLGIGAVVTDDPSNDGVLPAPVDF
The assay is described as follows: Fluorescence Cell-Free Homogeneous Dose Retest to Identify Inhibitors of RecA-Intein Splicing Activity. [Related pubchem assays (depositor defined):AID2097, AID2223, AID489010, AID492950]. Type of assay: functional.

For assay [15], the target named is T5, Replicative DNA helicase DnaB (Mycobacterium tuberculosis, UniProt P9WMR3).
T5 sequence (P9WMR3 whole entry): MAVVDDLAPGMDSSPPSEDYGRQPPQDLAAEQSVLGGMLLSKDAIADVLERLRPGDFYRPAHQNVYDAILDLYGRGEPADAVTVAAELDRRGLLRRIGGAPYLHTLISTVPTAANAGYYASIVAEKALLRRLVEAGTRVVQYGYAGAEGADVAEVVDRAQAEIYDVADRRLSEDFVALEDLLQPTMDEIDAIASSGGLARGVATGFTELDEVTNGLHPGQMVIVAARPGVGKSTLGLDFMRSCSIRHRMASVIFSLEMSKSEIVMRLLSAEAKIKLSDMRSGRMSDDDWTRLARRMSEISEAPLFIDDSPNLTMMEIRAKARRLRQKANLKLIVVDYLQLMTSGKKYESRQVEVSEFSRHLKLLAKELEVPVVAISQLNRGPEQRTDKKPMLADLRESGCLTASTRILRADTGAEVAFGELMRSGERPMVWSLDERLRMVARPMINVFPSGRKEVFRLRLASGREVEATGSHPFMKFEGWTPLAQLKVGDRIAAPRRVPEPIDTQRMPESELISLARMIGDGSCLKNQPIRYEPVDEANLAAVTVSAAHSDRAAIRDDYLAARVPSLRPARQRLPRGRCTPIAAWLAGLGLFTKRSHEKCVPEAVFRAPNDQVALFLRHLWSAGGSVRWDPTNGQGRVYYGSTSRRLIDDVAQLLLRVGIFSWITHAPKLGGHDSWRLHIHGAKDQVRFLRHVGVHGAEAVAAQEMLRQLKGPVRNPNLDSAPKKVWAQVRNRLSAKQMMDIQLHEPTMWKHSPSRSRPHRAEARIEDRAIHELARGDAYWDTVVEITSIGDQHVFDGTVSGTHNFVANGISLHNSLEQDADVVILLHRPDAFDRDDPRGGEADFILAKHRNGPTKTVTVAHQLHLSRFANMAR
In words: DnaB intein splicing inhibitors, dose response, biochemical, cell-free fluorescence (AID 449749). In kind it is functional.

Luciferin 4-monooxygenase, sequence (P08659 whole entry): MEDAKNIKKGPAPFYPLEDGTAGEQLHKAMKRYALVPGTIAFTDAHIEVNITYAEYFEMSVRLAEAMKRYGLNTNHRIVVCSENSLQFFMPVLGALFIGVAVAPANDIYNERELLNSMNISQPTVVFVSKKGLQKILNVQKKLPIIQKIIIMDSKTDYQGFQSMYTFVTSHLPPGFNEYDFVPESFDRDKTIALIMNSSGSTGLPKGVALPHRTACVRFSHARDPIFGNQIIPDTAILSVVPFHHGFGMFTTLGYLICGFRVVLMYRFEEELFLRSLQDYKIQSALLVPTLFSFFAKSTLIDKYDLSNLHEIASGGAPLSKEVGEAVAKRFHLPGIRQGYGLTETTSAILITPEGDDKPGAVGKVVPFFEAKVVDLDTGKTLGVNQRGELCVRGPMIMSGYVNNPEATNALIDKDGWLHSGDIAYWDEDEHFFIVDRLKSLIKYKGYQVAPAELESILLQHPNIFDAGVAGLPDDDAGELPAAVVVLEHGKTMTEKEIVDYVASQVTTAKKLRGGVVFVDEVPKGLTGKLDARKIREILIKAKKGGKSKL

As for `CCN(CC)CC(=O)n1c2c(c3ccccc31)CCCC2`, the EC50 in assay [1] and in [2] was > 112 µM (not active) throughout.

For the molecule `O=[N+]([O-])c1cccc(COc2ccc(CN3CCOCC3)cc2)c1`, the IC50 in assay [3] is > 47.1 µM (inactive). In addition, in [4], the EC50 was > 53 µM (inactive).

Take `C/[N+]([O-])=C\c1ccc([N+](=O)[O-])o1`: the EC50 in assay [5] is 0.885 µM (active); in assay [6] it was > 160 µM (inactive); in assay [7] it was 0.54 µM (active); in assay [8], > 60 µM (not active).

For `COc1nc2ccccc2nc1OC`, the EC50 in assay [1] and in assay [2] was > 112 µM (not active) in each case.

On to `Nc1c(Cl)ncnc1N/N=C/c1cccc(O)c1`, for which the EC50 in [1] is 58.1 µM (active); in [2], 22 µM (active).

As to `O=C(Nc1ccc(C(=O)N2CCN(c3ccc(Cl)cc3)CC2)cc1)C1=CSCCO1`, the EC50 in [1] was 31.2 µM (active); in [2], > 112 µM (not active).

`CN(C)Cc1cn(CC[C@@H]2CC[C@H](N)[C@H](CO)O2)nn1`: the AC50 in [9] is 22.9 µM (active).

Regarding `O=C(CCc1nnc2ccc(NCc3ccco3)nn12)N1CCN(c2ccccc2F)CC1`, the IC50 in assay [3] is > 47.1 µM (inactive). Besides, in assay [4], the EC50 is > 53 µM (inactive).

As for `c1ccc(-c2noc(CN3CCN(c4cnccn4)CC3)n2)cc1`, the IC50 in assay [3] is > 47.1 µM (inactive). Moreover, the EC50 in assay [4] is > 53 µM (inactive).

On to `N#CCC(=O)Nc1ccc(C(=O)OCC(=O)NNC(=O)c2cccs2)cc1`, for which the IC50 in assay [3] was > 47.1 µM (inactive). The EC50 in [4] was > 53 µM (inactive).

As to `O=C(CSc1cccc[n+]1[O-])CSc1cccc[n+]1[O-]`, the EC50 in [5] is 3.9 µM (active); in assay [6] it was > 160 µM (inactive); in [7], 6.09 µM (active); in assay [8], > 30 µM (not active).

As for `OC(CNCc1cccc(Cl)c1)c1ccccc1` (stereo not given), the EC50 in [1] was > 112 µM (not active); in assay [10], > 260 µM (inactive); in assay [2], 21.2 µM (active).

For `CN(/N=C/c1ccc(Cl)cc1Cl)c1ncc(Cl)cc1C(F)(F)F`, the EC50 was > 150 µM (not active) in [11], 16.9 µM (active) in [12], > 53 µM (inactive) in assay [4] and 21.2 µM (active) in [13]. In addition, the IC50 in assay [3] is > 47.1 µM (inactive).

`CC1(C)CC(=O)C=C(Nc2ccc3c(c2)OCCO3)C1`: the EC50 in assay [1] is > 112 µM (not active); in [2] it was 11 µM (active).

Consider `COc1ccc(S(=O)(=O)N(c2onc(C)c2Cl)S(=O)(=O)c2ccc(OC)cc2)cc1`, for which the IC50 in assay [3] was > 47.1 µM (inactive). The EC50 in [4] is > 53 µM (inactive).

As to `O=S(=O)(Nc1ccc(-c2ccc(N3CCOCC3)nn2)cc1)c1ccc(Cl)c(Cl)c1`, the figures for the EC50 in [1] and in assay [2] were 35.3 µM (active) and > 112 µM (not active), respectively.

For the molecule `Cc1ccc(-n2nc(C)c(/C=N/NC(=O)c3ccc([N+](=O)[O-])cc3)c2O)c(C)c1`, the figures for the EC50 in assay [14], in [5] and in assay [6] were 21.2 µM (active), 1.71 µM (active) and 11.7 µM (active), respectively. Also, in assay [15], the AC50 was 6.38 µM (active).

`Cc1ccc(NS(=O)(=O)c2cccc3nsnc23)cc1`: the IC50 in [3] was > 47.1 µM (inactive). The EC50 in [4] was > 53 µM (inactive).

In general, AC50 refers to the midpoint of the concentration-response curve, whichever way the signal moves.
